Source: ChEMBL document CHEMBL1201862, “PubChem BioAssay data set” (2004)
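Tested at 5 concentrations; 48 h exposure; 96-well plates; endpoints linearly interpolated, else capped at highest concentration. GI50 marks 50% less growth.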 Activity calls are given as the source filed them. Cut-off read from the data, not from the text of the source: active = GI50 up to about 1.1 µM and inactive = higher.

What was measured:
Test in all cases: DTP human tumour cell line panel, 48 h
UACC-257 = tested on: UACC-257
NCI/ADR-RES = tested on: NCI/ADR-RES
SN12C = tested on: SN12C
TK-10 = tested on: TK-10
SF-295 = tested on: SF-295
Hs-578T = tested on: Hs-578T
MCF7 = tested on: MCF7
EKVX = tested on: EKVX
HCT-116 = tested on: HCT-116
A549 = tested on: A549
LOX IMVI = tested on: LOX IMVI
Malme-3M = tested on: Malme-3M
CCRF-CEM = tested on: CCRF-CEM
OVCAR-3 = tested on: OVCAR-3
CAKI-1 = tested on: CAKI-1
OVCAR-8 = tested on: OVCAR-8
SK-MEL-28 = tested on: SK-MEL-28
MOLT-4 = tested on: MOLT-4
SK-MEL-2 = tested on: SK-MEL-2
MDA-MB-435 = tested on: MDA-MB-435
PC-3 = tested on: PC-3
UO-31 = tested on: UO-31
NCI-H23 = tested on: NCI-H23
SK-MEL-5 = tested on: SK-MEL-5
K562 = tested on: K562
COLO 205 = tested on: COLO 205
NCI-H522 = tested on: NCI-H522
RXF 393 = tested on: RXF 393
UACC-62 = tested on: UACC-62
SF-539 = tested on: SF-539
SR = tested on: SR
ACHN = tested on: ACHN
SK-OV-3 = tested on: SK-OV-3
A498 = tested on: A498
HL-60 = tested on: HL-60
RPMI-8226 = tested on: RPMI-8226
NCI-H460 = tested on: NCI-H460
MDA-MB-231 = tested on: MDA-MB-231
MDA-N = tested on: MDA-N
BT-549 = tested on: BT-549
SNB-19 = tested on: SNB-19
HT-29 = tested on: HT-29
KM12 = tested on: KM12
U-251 = tested on: U-251
M14 = tested on: M14
OVCAR-5 = tested on: OVCAR-5
HOP-92 = tested on: HOP-92
SW-620 = tested on: SW-620
HOP-62 = tested on: HOP-62
786-0 = tested on: 786-0
IGROV-1 = tested on: IGROV-1
SF-268 = tested on: SF-268
HCT-15 = tested on: HCT-15
OVCAR-4 = tested on: OVCAR-4
NCI-H226 = tested on: NCI-H226
DU-145 = tested on: DU-145
HCC 2998 = tested on: HCC 2998

Q: Which results are given for CN(C)CC(CN(C)C)c1ccccn1?
A: GI50 (UACC-257): > 100 µM (inactive); GI50 (NCI/ADR-RES): > 100 µM (inactive); GI50 (SN12C): > 100 µM (inactive); GI50 (TK-10): > 100 µM (inactive); GI50 (SF-295): > 100 µM (inactive); GI50 (Hs-578T): > 100 µM (inactive); GI50 (MCF7): > 100 µM (inactive); GI50 (EKVX): > 100 µM (inactive); GI50 (HCT-116): > 100 µM (inactive); GI50 (A549): > 100 µM (inactive); GI50 (LOX IMVI): > 100 µM (inactive); GI50 (Malme-3M): > 100 µM (inactive); GI50 (CCRF-CEM): > 100 µM (inactive); GI50 (OVCAR-3): > 100 µM (inactive); GI50 (CAKI-1): > 100 µM (inactive); GI50 (OVCAR-8): > 100 µM (inactive); GI50 (SK-MEL-28): > 100 µM (inactive); GI50 (MOLT-4): > 100 µM (inactive); GI50 (SK-MEL-2): > 100 µM (inactive); GI50 (MDA-MB-435): > 100 µM (inactive); GI50 (PC-3): > 100 µM (inactive); GI50 (UO-31): > 100 µM (inactive); GI50 (NCI-H23): > 100 µM (inactive); GI50 (SK-MEL-5): > 100 µM (inactive); GI50 (K562): > 100 µM (inactive); GI50 (COLO 205): > 100 µM (inactive); GI50 (NCI-H522): > 100 µM (inactive); GI50 (RXF 393): > 100 µM (inactive); GI50 (UACC-62): > 100 µM (inactive); GI50 (SF-539): > 100 µM (inactive); GI50 (SR): > 100 µM (inactive); GI50 (ACHN): > 100 µM (inactive); GI50 (SK-OV-3): > 100 µM (inactive); GI50 (A498): > 100 µM (inactive); GI50 (HL-60): > 100 µM (inactive); GI50 (RPMI-8226): > 100 µM (inactive); GI50 (NCI-H460): > 100 µM (inactive); GI50 (MDA-MB-231): > 100 µM (inactive); GI50 (MDA-N): > 100 µM (inactive); GI50 (BT-549): > 100 µM (inactive); GI50 (SNB-19): > 100 µM (inactive); GI50 (HT-29): > 100 µM (inactive); GI50 (KM12): > 100 µM (inactive); GI50 (U-251): > 100 µM (inactive); GI50 (M14): > 100 µM (inactive); GI50 (OVCAR-5): > 100 µM (inactive); GI50 (HOP-92): > 100 µM (inactive); GI50 (SW-620): > 100 µM (inactive); GI50 (HOP-62): > 100 µM (inactive); GI50 (786-0): > 100 µM (inactive); GI50 (IGROV-1): > 100 µM (inactive); GI50 (SF-268): > 100 µM (inactive); GI50 (HCT-15): > 100 µM; GI50 (OVCAR-4): > 100 µM (inactive); GI50 (NCI-H226): > 100 µM (inactive)

Q: How did the GI50 (UACC-257) turn out when C/C=C\C(CC(=O)NCCC1CN(S(=O)(=O)C(F)(F)F)c2ccccc21)CC(=O)OC (stereo not given) was run?
A: The GI50 was 48.2 µM (inactive).

Q: What about the GI50 (NCI/ADR-RES) of the same compound?
A: The GI50 was 29.6 µM (inactive).

Q: What about the GI50 (SF-295) of the same compound?
A: The GI50 was 42.4 µM (inactive).

Q: And the GI50 (Hs-578T)?
A: The GI50 was 22.6 µM (inactive).

Q: And the GI50 (MCF7)?
A: Its GI50 is 49.9 µM (inactive).

Q: What about the GI50 (EKVX) of the same compound?
A: The GI50 was 37.4 µM (inactive).

Q: What about the GI50 (HCT-116) of the same compound?
A: The GI50 was 31.3 µM (inactive).

Q: And the GI50 (A549)?
A: The GI50 was 45.8 µM (inactive).

Q: What about the GI50 (Malme-3M) of the same compound?
A: The GI50 was 15.9 µM (inactive).

Q: And the GI50 (CCRF-CEM)?
A: The GI50 was 26.6 µM (inactive).

Q: And the GI50 (OVCAR-3)?
A: The GI50 was 38.3 µM (inactive).

Q: And the GI50 (CAKI-1)?
A: The GI50 was 56.6 µM (inactive).

Q: And the GI50 (DU-145)?
A: Its GI50 is > 100 µM (inactive).

Q: What about the GI50 (OVCAR-8) of the same compound?
A: Its GI50 is 38.8 µM (inactive).

Q: And the GI50 (SK-MEL-28)?
A: Its GI50 is 43.3 µM (inactive).

Q: What about the GI50 (MOLT-4) of the same compound?
A: The GI50 was 29.6 µM (inactive).

Q: What about the GI50 (SK-MEL-2) of the same compound?
A: The GI50 was 32.1 µM (inactive).

Q: And the GI50 (MDA-MB-435)?
A: Its GI50 is > 10 µM (inactive).

Q: What about the GI50 (PC-3) of the same compound?
A: Its GI50 is 35.4 µM (inactive).

Q: What about the GI50 (UO-31) of the same compound?
A: Its GI50 is 35.3 µM (inactive).

Q: And the GI50 (NCI-H23)?
A: Its GI50 is 34.7 µM (inactive).

Q: And the GI50 (SK-MEL-5)?
A: Its GI50 is 16.9 µM (inactive).

Q: What about the GI50 (K562) of the same compound?
A: The GI50 was 51.8 µM (inactive).

Q: What about the GI50 (COLO 205) of the same compound?
A: The GI50 was 24.8 µM (inactive).

Q: And the GI50 (NCI-H522)?
A: The GI50 was 18.3 µM (inactive).

Q: What about the GI50 (RXF 393) of the same compound?
A: Its GI50 is 36.3 µM (inactive).

Q: And the GI50 (UACC-62)?
A: The GI50 was 34.1 µM (inactive).

Q: And the GI50 (SR)?
A: Its GI50 is > 100 µM (inactive).

Q: And the GI50 (ACHN)?
A: The GI50 was 37.6 µM (inactive).

Q: What about the GI50 (SK-OV-3) of the same compound?
A: Its GI50 is 64.3 µM (inactive).

Q: And the GI50 (A498)?
A: Its GI50 is 62.8 µM (inactive).

Q: And the GI50 (RPMI-8226)?
A: The GI50 was 31.8 µM (inactive).

Q: What about the GI50 (NCI-H460) of the same compound?
A: The GI50 was 35.6 µM (inactive).

Q: And the GI50 (MDA-MB-231)?
A: The GI50 was 50.8 µM (inactive).

Q: And the GI50 (MDA-N)?
A: Its GI50 is 40 µM (inactive).

Q: And the GI50 (BT-549)?
A: Its GI50 is 27.4 µM (inactive).

Q: What about the GI50 (HCC 2998) of the same compound?
A: Its GI50 is 53.3 µM (inactive).

Q: What about the GI50 (SNB-19) of the same compound?
A: Its GI50 is 44.7 µM (inactive).

Q: What about the GI50 (HT-29) of the same compound?
A: The GI50 was 21.8 µM (inactive).

Q: And the GI50 (KM12)?
A: Its GI50 is 26.9 µM (inactive).

Q: What about the GI50 (U-251) of the same compound?
A: Its GI50 is 59.3 µM (inactive).

Q: And the GI50 (M14)?
A: Its GI50 is 36.5 µM (inactive).

Q: What about the GI50 (OVCAR-5) of the same compound?
A: The GI50 was 58.6 µM (inactive).

Q: And the GI50 (HOP-92)?
A: The GI50 was 23.9 µM (inactive).

Q: And the GI50 (SW-620)?
A: The GI50 was 55.8 µM (inactive).

Q: What about the GI50 (HOP-62) of the same compound?
A: Its GI50 is 35.2 µM (inactive).

Q: And the GI50 (786-0)?
A: The GI50 was 34.2 µM (inactive).

Q: What about the GI50 (IGROV-1) of the same compound?
A: The GI50 was 50 µM (inactive).

Q: What about the GI50 (HCT-15) of the same compound?
A: Its GI50 is 42.8 µM.

Q: What about the GI50 (OVCAR-4) of the same compound?
A: The GI50 was 63.5 µM (inactive).
